Literature values, collected in patent US10980267B2, “Molecular particle superior delivery system” (priority 2018, dated 2021).

Assays:
[1] = consumed in foods and drinks
[2] = in humans, WHO report
[3] = especially child seizures

SMILES: C=C(C)[C@@H]1CCC(C)=C[C@H]1c1c(O)cc(CCCCC)cc1O [CBD, cannabidiol]
- safety of consumption / toxicity [1]: completely safe to consume in foods and drinks and is considered to be non-toxic
- abuse or dependence potential [2]: no effects indicative of any abuse or dependence potential
- effect on number of seizures [3]: reduce the number of seizures
